Data set [1] deals with T1, Mtb-FtsZ (Mycobacterium tuberculosis, UniProt P9WN95). Description: Mtb-FtsZ polymerization inhibitory assay. Format: biochemical. To be noted: light scattering, Mtb-FtsZ 15 μM, GTP 100 μM.
For data set [2], the target named is T1, Mtb-FtsZ. Description: Transmission electron microscopy. The class given is biochemical. The following applies: Mtb-FtsZ 5 μM, GTP 25 μM.
Data set [3] can be described thus: Cytotoxicity, MTT assay. To be noted: African green monkey, Vero cells. The class given is cell-based.
The subject of data set [4] is Mtb H37Rv. Description: MIC determination by microplate Alamar Blue assay. The class given is cell-based. To be noted: Mycobacterium tuberculosis, read-out: MIC Mtb H37Rv.

Values after ≈ are worked out from the molar mass of the structure shown. Where only a bound is given, the exact number is not on record here.

T1 sequence (P9WN95 whole entry): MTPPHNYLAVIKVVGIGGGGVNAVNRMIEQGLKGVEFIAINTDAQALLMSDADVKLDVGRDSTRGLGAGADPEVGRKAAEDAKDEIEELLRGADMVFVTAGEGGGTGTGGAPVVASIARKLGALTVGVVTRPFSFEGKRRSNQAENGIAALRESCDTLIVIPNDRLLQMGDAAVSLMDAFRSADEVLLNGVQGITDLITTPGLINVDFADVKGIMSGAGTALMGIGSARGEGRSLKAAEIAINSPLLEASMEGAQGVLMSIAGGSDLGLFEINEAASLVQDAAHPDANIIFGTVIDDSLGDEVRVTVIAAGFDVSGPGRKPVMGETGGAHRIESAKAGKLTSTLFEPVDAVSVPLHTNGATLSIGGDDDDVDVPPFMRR

Turning to `CCCCOC(=O)Nc1cc2nc(C3CCCCC3)[nH]c2cc1Oc1ccc(F)cc1` [Compound 5a, 5-Butoxycarbonylamino-2-cyclohexyl-6-(4-fluorophenoxy)-1H-benzo[d]imidazole], the “Inhibition of FtsZ polymerization” value in data set [1] is reported as “inhibited FtsZ polymerization in a dose-dependent manner”. For the same molecule, the “Effect on FtsZ polymers in TEM” value is “the length, density and aggregation was visibly reduced” in data set [2] (5a 40 μM); “very short and dispersed FtsZ polymers were observed” in data set [2] (5a 80 μM).
Take `O=C(Nc1cc2nc(C3CCCCC3)[nH]c2cc1Oc1ccc(F)cc1)c1ccc(F)cc1F` [Compound 5d, 2-Cyclohexyl-5-(2,4-difluorobenzamido)-6-(4-fluorophenoxy)-1H-benzo[d]imidazole]: the “Inhibition of FtsZ polymerization” value in data set [1] is reported as “inhibited FtsZ polymerization in a dose-dependent manner”.
By IC50 is commonly meant the midpoint of a concentration-inhibition curve. Low values mean inhibition by little substance, high ones a need for much substance. `Cc1ccc(C(=O)Nc2cc3nc(C4CCCCC4)[nH]c3cc2Sc2ccccc2)cc1` [Compound 5f, 2-Cyclohexyl-5-(4-methxylbenzamido)-6-(phenylthio)-1H-benzo[d]imidazole] yielded a half-maximal inhibitory concentration (IC50) at 3 days in data set [3] of more than 200 µM.
For orientation: MIC means the lowest concentration found to suppress growth. In the case of `CCCCSc1cc2[nH]c(C3CCCCC3)nc2cc1NC(=O)c1ccc(C)cc1` [Compound 5i, 6-(Butylthio)-5-(4-metylbenzamido)-2-cyclohexyl-1H-benzo[d]imidazole], the MIC in data set [4] came to 1.25 µg/mL (≈ 2.96 µM).
